Laboratory results: PubChem BioAssay AID330 (DTP/NCI, 2004)
Where “and” joins values, the source holds several entries; their conditions need not be identical. Identical values can stand only once. Inconclusive results and toxic doses are left out. How the source made its calls: active means survival T/C of 150% or more; inactive means T/C below 125% in these data.

Test system: P388 leukemia ip, CD2F1 mice, survival T/C
Test: NCI In Vivo Anticancer Drug Screen. Data for tumor model P388 Leukemia (intraperitoneal) in CD2F1 (CDF1) mice
Details: endpoint: median survival time, higher = longer survival
Procedure, shortened: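 Mice carrying the transplanted tumor received test compound or vehicle. Survival was recorded in each group, and the value is the treated-group measurement divided by that of the vehicle-treated control group.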

[1] = dose: 25.0 mg/kg/injection, schedule: Q01DX005 (ip), vehicle: saline with Tween-80
[2] = dose: 50.0 mg/kg/injection, schedule: Q01DX005 (ip), vehicle: saline with Tween-80
[3] = dose: 100.0 mg/kg/injection, schedule: Q01DX005 (ip), vehicle: saline with Tween-80
[4] = dose: 12.5 mg/kg/injection, schedule: Q01DX005 (ip), vehicle: saline with Tween-80
[5] = dose: 60.0 mg/kg/injection, schedule: Q01DX005 (ip), vehicle: saline with Tween-80
[6] = dose: 120.0 mg/kg/injection, schedule: Q01DX005 (ip), vehicle: saline with Tween-80
[7] = dose: 200.0 mg/kg/injection, schedule: Q01DX005 (ip), vehicle: saline with Tween-80
[8] = dose: 3.75 mg/kg/injection, schedule: Q01DX005 (ip), vehicle: saline with Tween-80
[9] = dose: 7.5 mg/kg/injection, schedule: Q01DX005 (ip), vehicle: saline with Tween-80
[10] = dose: 240.0 mg/kg/injection, schedule: Q01DX005 (ip), vehicle: saline with Tween-80
[11] = dose: 50.0 mg/kg/injection, schedule: Q01DX009 (ip), vehicle: Klucel (hydroxypropylcellulose) (HPC)
[12] = dose: 100.0 mg/kg/injection, schedule: Q01DX009 (ip), vehicle: Klucel (hydroxypropylcellulose) (HPC)
[13] = dose: 200.0 mg/kg/injection, schedule: Q01DX009 (ip), vehicle: Klucel (hydroxypropylcellulose) (HPC)
[14] = dose: 60.0 mg/kg/injection, schedule: Q01DX005 (ip), vehicle: saline
[15] = dose: 120.0 mg/kg/injection, schedule: Q01DX005 (ip), vehicle: saline
[16] = dose: 240.0 mg/kg/injection, schedule: Q01DX005 (ip), vehicle: saline
[17] = dose: 50.0 mg/kg/injection, schedule: Q01DX009 (ip), vehicle: saline with Tween-80
[18] = dose: 100.0 mg/kg/injection, schedule: Q01DX009 (ip), vehicle: saline with Tween-80
[19] = dose: 200.0 mg/kg/injection, schedule: Q01DX009 (ip), vehicle: saline with Tween-80
[20] = dose: 60.0 mg/kg/injection, schedule: Q01DX005 (ip), vehicle: Klucel (hydroxypropylcellulose) (HPC)
[21] = dose: 120.0 mg/kg/injection, schedule: Q01DX005 (ip), vehicle: Klucel (hydroxypropylcellulose) (HPC)
[22] = dose: 240.0 mg/kg/injection, schedule: Q01DX005 (ip), vehicle: Klucel (hydroxypropylcellulose) (HPC)
[23] = dose: 100.0 mg/kg/injection, schedule: Q04DX003 (ip), vehicle: saline with Tween-80
[24] = dose: 200.0 mg/kg/injection, schedule: Q04DX003 (ip), vehicle: saline with Tween-80

Measured: T/C

CC(=O)OC[C@@]1(C)[C@@H]2CC[C@]3(C)[C@H](C(=O)C=C4[C@@H]5CC(C)(C)CC[C@]5(C(=O)O)CC[C@]43C)[C@@]2(C)CC[C@@H]1OC(C)=O
inactive: [1] 108 % of control | [2] 87 % of control and 95 % of control | [3] 93 % of control

COC(=O)C1(O)C(=O)NC2=C1C(=O)c1ccccc1C2=O (stereo not given)
inactive: [4] 99 % of control and 95 % of control | [1] 98 % of control and 110 % of control | [2] 105 % of control

COC(=O)c1nnn(-c2cccc(Cl)c2)c1N
inactive: [5] 95 % of control | [6] 95 % of control

C[C@]12Cc3cnc(N)nc3C[C@@H]1CC[C@@H]1[C@@H]2CC[C@@]2(C)[C@H]1CC[C@]2(C)O
inactive: [2] 99 % of control | [3] 89 % of control | [7] 89 % of control

O=C1C=CC(Nc2cc(Cl)ccc2Cl)C1Nc1cc(Cl)ccc1Cl (stereo not given)
inactive: dose: 1.88 mg/kg/injection, schedule: Q01DX005 (ip), vehicle: saline with Tween-80 99 % of control | [8] 97 % of control | [9] 87 % of control and 93 % of control | [10] 86 % of control and 89 % of control

COc1cc2nc3cc([N+](=O)[O-])ccc3c(NCCNCC(C)(C)O)c2cc1OC
inactive: dose: 6.25 mg/kg/injection, schedule: Q01DX005 (ip), vehicle: saline with Tween-80 102 % of control and 105 % of control and 96 % of control | [4] 109 % of control and 115 % of control and 117 % of control | [1] 117 % of control and 118 % of control and 121 % of control

CCN(CC)C(=O)C(F)C(F)(F)C(F)(F)C(F)C(=O)N(CC)CC (stereo not given)
inactive: [11] 108 % of control | [12] 99 % of control | [13] 98 % of control

Nc1nc(-c2ccccc2)cc(-c2cc(-c3ccccc3)nc(N)n2)n1
inactive: [14] 100 % of control | [15] 102 % of control | [16] 100 % of control

CCC[CH2][Sn]1([CH2]CCC)[O]CCN2CCN(CC[O]1)CC2
inactive: [8] 102 % of control | [9] 100 % of control | dose: 15.0 mg/kg/injection, schedule: Q01DX005 (ip), vehicle: saline with Tween-80 100 % of control

COc1ccc2c(c1OC)C(=O)OC2c1cc(Br)c(O)c(C2OC(=O)c3c2ccc(OC)c3OC)c1 (stereo not given)
inactive: [17] 90 % of control | [18] 86 % of control | dose: 100.0 mg/kg/injection, schedule: Q04DX003 (ip), vehicle: saline 87 % of control | dose: 400.0 mg/kg/injection, schedule: Q04DX003 (ip), vehicle: saline 87 % of control

N#Cc1ccc(CC(CC(=O)c2ccccc2)c2ccccc2)cc1 (stereo not given)
inactive: dose: 25.0 mg/kg/injection, schedule: Q01DX009 (ip), vehicle: saline with Tween-80 91 % of control | [17] 89 % of control | [18] 89 % of control | [19] 89 % of control

CC(C)(C)C(=O)OCCN(CCOC(=O)C(C)(C)C)C(=O)COC(=O)C(C)(C)C
inactive: [17] 96 % of control | [18] 94 % of control | [19] 100 % of control

COc1ccc(C(=O)/C(C)=C(/C)N)c(OCc2ccccc2)c1OC
inactive: dose: 50.0 mg/kg/injection, schedule: Q01DX005 (ip), vehicle: Klucel (hydroxypropylcellulose) (HPC) 104 % of control | dose: 100.0 mg/kg/injection, schedule: Q01DX005 (ip), vehicle: Klucel (hydroxypropylcellulose) (HPC) 94 % of control | dose: 200.0 mg/kg/injection, schedule: Q01DX005 (ip), vehicle: Klucel (hydroxypropylcellulose) (HPC) 105 % of control

COC(=O)C(Nc1ccc(OC)cc1)c1ccccc1 (stereo not given)
inactive: [20] 108 % of control | [21] 104 % of control | [22] 110 % of control

COC(=O)c1cc([N+](=O)[O-])ccc1N=NNc1ccccc1
inactive: dose: 12.5 mg/kg/injection, schedule: Q01DX009 (ip), vehicle: saline 106 % of control | dose: 25.0 mg/kg/injection, schedule: Q01DX009 (ip), vehicle: saline 103 % of control and 95 % of control | dose: 50.0 mg/kg/injection, schedule: Q01DX009 (ip), vehicle: saline 100 % of control and 105 % of control and 95 % of control | dose: 200.0 mg/kg/injection, schedule: Q01DX009 (ip), vehicle: saline 87 % of control

COc1ccc(-c2c(C)oc(C)c2C(C)=O)cc1OC
inactive: [20] 98 % of control | [21] 102 % of control | [22] 101 % of control

COc1ccn(CC(C)=O)c(=O)n1
inactive: [14] 100 % of control | [15] 100 % of control | [16] 100 % of control

O=C(O)/C=C/CCCCCO
inactive: dose: 100.0 mg/kg/injection, schedule: Q01DX001 (ip), vehicle: saline with Tween-80 94 % of control | dose: 200.0 mg/kg/injection, schedule: Q01DX001 (ip), vehicle: saline with Tween-80 97 % of control | dose: 400.0 mg/kg/injection, schedule: Q01DX001 (ip), vehicle: saline with Tween-80 90 % of control

CCOc1c(N=Nc2ccc(Cl)cc2)c(C)nn1C(=S)SC
inactive: dose: 7.5 mg/kg/injection, schedule: Q01DX005 (ip), vehicle: Klucel + Tween-80 92 % of control | dose: 15.0 mg/kg/injection, schedule: Q01DX005 (ip), vehicle: Klucel + Tween-80 86 % of control | dose: 30.0 mg/kg/injection, schedule: Q01DX005 (ip), vehicle: Klucel + Tween-80 86 % of control | dose: 60.0 mg/kg/injection, schedule: Q01DX005 (ip), vehicle: Klucel + Tween-80 94 % of control

Nc1ncnc2nc(CO)[nH]c12
inactive: dose: 0.78 mg/kg/injection, schedule: Q01DX009 (ip), vehicle: saline with Tween-80 100 % of control | dose: 1.56 mg/kg/injection, schedule: Q01DX009 (ip), vehicle: saline with Tween-80 97 % of control | dose: 3.13 mg/kg/injection, schedule: Q01DX009 (ip), vehicle: saline with Tween-80 93 % of control | dose: 6.25 mg/kg/injection, schedule: Q01DX009 (ip), vehicle: saline with Tween-80 91 % of control

Cc1ccnc(NS(=O)(=O)c2ccc(NCc3c4ccccc4nc4cc(Cl)ccc34)cc2)n1
inactive: [5] 99 % of control | [6] 90 % of control | [10] 86 % of control

CCCCCC(C)N(C)C(=O)CNCC(C)C (stereo not given)
inactive: [2] 100 % of control | [3] 108 % of control

NC(=O)c1cc(Cl)nc2nc(Cl)nc(N)c12
inactive: [2] 105 % of control | dose: 50.0 mg/kg/injection, schedule: Q04DX003 (ip), vehicle: saline with Tween-80 101 % of control | [3] 105 % of control | [23] 100 % of control and 114 % of control | [7] 108 % of control | [24] 106 % of control | dose: 400.0 mg/kg/injection, schedule: Q01DX005 (ip), vehicle: saline with Tween-80 112 % of control | dose: 400.0 mg/kg/injection, schedule: Q04DX003 (ip), vehicle: saline with Tween-80 110 % of control and 111 % of control

c1cc2c(cc1CSCc1c(CSCc3ccc4c(c3)OCO4)c(CSCc3ccc4c(c3)OCO4)c(CSCc3ccc4c(c3)OCO4)c(CSCc3ccc4c(c3)OCO4)c1CSCc1ccc3c(c1)OCO3)OCO2
inactive: [17] 100 % of control | [18] 99 % of control | [19] 97 % of control

CCCCCCOc1ccc(C(=O)Oc2ccc(OC(=O)c3ccc(N)cc3)cc2)cc1
inactive: [11] 102 % of control | [12] 100 % of control | [13] 100 % of control

O=NN(c1ccccc1)c1ccccc1
inactive: [17] 101 % of control | [18] 100 % of control | [19] 98 % of control

CCOc1ccc2cc3c(nc2n1)[nH]c1ccccc13
inactive: dose: 100.0 mg/kg/injection, schedule: Q04DX003 (ip), vehicle: Klucel (hydroxypropylcellulose) (HPC) 103 % of control | dose: 200.0 mg/kg/injection, schedule: Q04DX003 (ip), vehicle: Klucel (hydroxypropylcellulose) (HPC) 107 % of control | dose: 400.0 mg/kg/injection, schedule: Q04DX003 (ip), vehicle: Klucel (hydroxypropylcellulose) (HPC) 110 % of control

O=C(Cc1nc2cc(Cl)c(Cl)cc2nc1CC(=O)c1ccccc1)c1ccccc1
inactive: [5] 102 % of control | [6] 94 % of control | [10] 96 % of control

Cc1ncn2cnnc2c1C
inactive: [23] 89 % of control | [24] 95 % of control
